Results from EPA's ToxRefDB 2.

How the values were obtained:
dog [1] = settings: Chronic toxicity; beagle; Oral; Capsule; dose end: 52 week; group: systemic; systemic / in life observation / body weight / body weight + systemic / in life observation / body weight / body weight gain + systemic / …
rat [2] = settings: Subchronic oral toxicity in rodents, wistar, Feed, dose end: 90 day, group: systemic
dog [3] = settings: Chronic toxicity, beagle, Oral, Capsule, dose end: 12 month, group: systemic
rabbit [4] = settings: Prenatal developmental toxicity study, himalayan, Oral, Gavage/Intubation, dose end: 28 GD
mouse = settings: Subchronic oral toxicity in rodents, b6c3f1, Feed, dose end: 91 day, group: systemic
rat [5] = settings: Subchronic oral toxicity in rodents, wistar, Feed, dose end: 3 month
rat [6] = settings: Multigenerational reproductive toxicity study, wistar (Chbb = THOM-SPF), Oral, Feed, dose end: 1 generation
dog [7] = settings: Subchronic oral toxicity in nonrodent, beagle, Feed, dose end: 52 week, group: systemic, systemic / clinical chemistry / albumin / albumin + systemic / clinical chemistry / cholesterol / cholesterol + systemic / clinical …
rat [8] = settings: Prenatal developmental toxicity study, wistar, Oral, Gavage/Intubation, dose end: 19 GD
rat [9] = settings: Combined chronic toxicity/carcinogenicity; wistar; Oral; Feed; dose end: 104 week; group: systemic; systemic / in life observation / body weight / body weight + systemic / in life observation / body weight / body weight gain + systemic / …
rat [10] = settings: Subchronic dermal toxicity, sprague dawley, Topical, dose end: 13 week, group: systemic, systemic / in life observation / body weight / body weight + systemic / in life observation / food consumption / food consumption + systemic…
rat [11] = settings: Prenatal developmental toxicity study, sprague dawley, Oral, Gavage/Intubation, dose end: 15 GD
rabbit [12] = settings: Prenatal developmental toxicity study, new zealand white, Oral, Gavage/Intubation, dose end: 18 GD
rat [13] = settings: Prenatal developmental toxicity study; wistar; Oral; Feed; dose end: 21 GD; group: maternal; systemic / in life observation / food consumption / food consumption + systemic / in life observation / water consumption / water …
[14] = systemic / in life observation / body weight / body weight gain + systemic / in life observation / food consumption / food consumption + …
[15] = systemic / in life observation / clinical signs / abnormal gait + systemic / in life observation / clinical signs / ataxia + systemic / in …
[16] = systemic / in life observation / clinical signs / abnormal gait + systemic / in life observation / clinical signs / convulsions
[17] = group: developmental, developmental / developmental malformation / bone / absent
[18] = group: maternal, reproductive / reproductive performance / postimplantation loss / postimplantation loss + reproductive / reproductive performance / …
[19] = group: maternal, systemic / in life observation / body weight / body weight gain + systemic / in life observation / food consumption / food consumption + …
[20] = systemic / clinical chemistry / triglycerides / triglycerides + systemic / clinical chemistry / urea nitrogen / urea + systemic / in life …
[21] = systemic / pathology microscopic / stomach / erosion
[22] = group: cholinesterase, cholinesterase / cholinesterase / cholinesterase / cholinesterase (che)
[23] = group: systemic, systemic / in life observation / body weight / body weight + systemic / in life observation / body weight / body weight gain + systemic / in…
[24] = group: offspring, systemic / in life observation / body weight / offspring (pup) weight
[25] = group: parental, systemic / in life observation / body weight / body weight + systemic / in life observation / body weight / body weight gain + systemic / in…
[26] = group: developmental, developmental / developmental malformation / bone / cervical + developmental / developmental malformation / kidney / dilated renal pelvis
[27] = group: maternal, systemic / in life observation / body weight / body weight + systemic / in life observation / body weight / body weight gain + systemic / in…
[28] = group: developmental, developmental / developmental malformation / bone / fused
[29] = group: developmental, developmental / developmental malformation / bone / fused + developmental / developmental malformation / bone / [other] + developmental / …
[30] = group: maternal, systemic / in life observation / body weight / body weight gain + systemic / in life observation / clinical signs / salivation + …
[31] = group: developmental, developmental / developmental malformation / general / [other]
[32] = group: maternal, reproductive / reproductive performance / postimplantation loss / postimplantation loss + systemic / in life observation / food consumption…

Structure (SMILES): CC(C)[C@@H](Nc1ccc(C(F)(F)F)cc1Cl)C(=O)OC(C#N)c1cccc(Oc2ccccc2)c1 (stereo not given in full) [tau-Fluvalinate]
- LEL (dog [1]): 12 mg/kg/day
- LOAEL (dog [1]): 12 mg/kg/day
- NEL (dog [1]): 3 mg/kg/day
- NOAEL (dog [1]): 3 mg/kg/day

Structure (SMILES): CC1(C)[C@H](/C=C(\Cl)C(F)(F)F)[C@@H]1C(=O)O[C@@H](C#N)c1cccc(Oc2ccccc2)c1 [lambda-Cyhalothrin]
- LEL (rat [2]; systemic / clinical chemistry / aminopyrine-n-demethylase / aminopyrine-n-demethylase + systemic / organ weight / liver / absolute): 2.5 mg/kg/day
- LOAEL (rat [2]; [14]): 12.5 mg/kg/day
- NEL (rat [2]; [14]): 0.5 mg/kg/day
- NOAEL (rat [2]; [14]): 2.5 mg/kg/day
- NEL (dog [3]; [15]): 0.1 mg/kg/day
- NOAEL (dog [3]; [15]): 0.1 mg/kg/day
- LEL (dog [3]; [16]): 0.5 mg/kg/day
- LOAEL (dog [3]; [16]): 0.5 mg/kg/day

Structure (SMILES): COC(=O)N(OC)c1ccccc1COc1ccn(-c2ccc(Cl)cc2)n1 [Pyraclostrobin]
- LEL (rabbit [4]; [17]): 20 mg/kg/day
- LOAEL (rabbit [4]; [17]): > 20 mg/kg/day
- NEL (rabbit [4]; [17]): 10 mg/kg/day
- NOAEL (rabbit [4]; [17]): ≥ 20 mg/kg/day
- LOAEL (rabbit [4]; [18]): 10 mg/kg/day
- NOAEL (rabbit [4]; [18]): 5 mg/kg/day
- LEL (rabbit [4]; [19]): 5 mg/kg/day
- NEL (rabbit [4]; [19]): < 5 mg/kg/day
- LOAEL (mouse; [20]): 30.4 mg/kg/day
- NOAEL (mouse; [20]): 9.2 mg/kg/day
- LEL (mouse; [21]): 12.9 mg/kg/day
- NEL (mouse; [21]): < 12.9 mg/kg/day
- LEL (rat [5]; [22]): 79.7 mg/kg/day
- LOAEL (rat [5]; [22]): > 119 mg/kg/day
- NEL (rat [5]; [22]): 40.8 mg/kg/day
- NOAEL (rat [5]; [22]): ≥ 119 mg/kg/day
- LOAEL (rat [5]; [23]): 34.7 mg/kg/day
- NEL (rat [5]; [23]): 3.5 mg/kg/day
- NOAEL (rat [5]; [23]): 10.7 mg/kg/day
- LEL (rat [5]; group: systemic, systemic / pathology microscopic / spleen / histiocytosis): 10.7 mg/kg/day
- LEL (rat [6]; [24]): 20.5 mg/kg/day
- LOAEL (rat [6]; [24]): 20.5 mg/kg/day
- NEL (rat [6]; [24]): < 20.5 mg/kg/day
- NOAEL (rat [6]; [24]): < 20.5 mg/kg/day
- LOAEL (rat [6]; group: parental, systemic / in life observation / body weight / body weight + systemic / in life observation / body weight / body weight gain): 39.9 mg/kg/day
- LEL (rat [6]; [25]): 39.9 mg/kg/day
- NEL (rat [6]; [25]): 20.5 mg/kg/day
- NOAEL (rat [6]; [25]): 20.5 mg/kg/day
- LEL (dog [7]): 10.8 mg/kg/day
- LOAEL (dog [7]): 10.8 mg/kg/day
- NEL (dog [7]): 5.4 mg/kg/day
- NOAEL (dog [7]): 5.4 mg/kg/day
- LEL (rat [8]; [26]): 50 mg/kg/day
- LOAEL (rat [8]; [26]): 50 mg/kg/day
- NEL (rat [8]; [26]): 25 mg/kg/day
- NOAEL (rat [8]; [26]): 25 mg/kg/day
- LEL (rat [8]; [27]): 25 mg/kg/day
- LOAEL (rat [8]; [27]): 25 mg/kg/day
- NEL (rat [8]; [27]): 10 mg/kg/day
- NOAEL (rat [8]; [27]): 10 mg/kg/day
- LEL (rat [9]): 9.2 mg/kg/day
- LOAEL (rat [9]): 9.2 mg/kg/day
- NEL (rat [9]): 3.4 mg/kg/day
- NOAEL (rat [9]): 3.4 mg/kg/day

Structure (SMILES): [O-][n+]1ccccc1[S-].[O-][n+]1ccccc1[S-].[Zn+2] [Zinc pyrithione]
- LEL (rat [10]): 1000 mg/kg/day
- LOAEL (rat [10]): 1000 mg/kg/day
- NEL (rat [10]): 100 mg/kg/day
- NOAEL (rat [10]): 100 mg/kg/day
- LEL (rat [11]; [28]): 3 mg/kg/day
- LOAEL (rat [11]; [28]): 3 mg/kg/day
- NEL (rat [11]; [29]): 0.75 mg/kg/day
- NOAEL (rat [11]; [29]): 0.75 mg/kg/day
- LOAEL (rat [11]; group: maternal, systemic / in life observation / body weight / body weight gain + systemic / in life observation / clinical signs / salivation): 3 mg/kg/day
- LEL (rat [11]; [30]): 3 mg/kg/day
- NEL (rat [11]; [30]): 0.75 mg/kg/day
- NOAEL (rat [11]; [30]): 0.75 mg/kg/day
- LEL (rabbit [12]; [31]): 3 mg/kg/day
- LOAEL (rabbit [12]; [31]): > 3 mg/kg/day
- NEL (rabbit [12]; [31]): 1.5 mg/kg/day
- NOAEL (rabbit [12]; [31]): ≥ 3 mg/kg/day
- LEL (rabbit [12]; [32]): 1.5 mg/kg/day
- LOAEL (rabbit [12]; [32]): 1.5 mg/kg/day
- NEL (rabbit [12]; [32]): 0.5 mg/kg/day
- NOAEL (rabbit [12]; [32]): 0.5 mg/kg/day

Structure (SMILES): OC[C@H]1O[C@@H]2O[C@H]3[C@H](O)[C@@H](O)[C@@H](O[C@H]4[C@H](O)[C@@H](O)[C@@H](O[C@H]5[C@H](O)[C@@H](O)[C@@H](O[C@H]6[C@H](O)[C@@H](O)[C@@H](O[C@H]7[C@H](O)[C@@H](O)[C@@H](O[C@H]1[C@H](O)[C@H]2O)O[C@@H]7CO)O[C@@H]6CO)O[C@@H]5CO)O[C@@H]4CO)O[C@@H]3CO [alpha-Cyclodextrin]
- LEL (rat [13]): 13.2 mg/kg/day
- LOAEL (rat [13]): > 13.2 mg/kg/day
- NEL (rat [13]): 6.5 mg/kg/day
- NOAEL (rat [13]): ≥ 13.2 mg/kg/day
